From PubChem BioAssay AID1963434 (Molecular Pharmacology Branch, DTP, NCI, 2024)
Several values for one entry are separate records, joined by “and”; a condition that tells them apart may be missing. Equal values may be shown once.

Tested on: 755483-174-R-J1-PDC complex spheroid growth, percent test/control
Assay: Anticancer human tumor 755483-174-R-J1-PDC patient-derived rhabdomyosarcoma cell line growth inhibition [Asc]
Settings: for viability, T/C: stronger effect = lower value; for IC50: curve of compound
Procedure: Multicellular complex tumor spheroid response to apoptosis pathway targeting inhibitors Alrizomadlin, Pelcitoclax, and Dasminapant in combination with a variety of drugs and investigational agents in selected tumor cell lines
The MDM2 inhibitor alrizomadlin, the Bcl-2/Bcl-xL inhibitor pelcitoclax, and the IAPs inhibitor dasminapant were evaluated both individually and in combination with standard of care and investigational anticancer small molecules within a complex spheroid model of solid tumors. . Complex spheroids include a stromal component modeled by human endothelial cells (HUVEC) and fibroblasts modeled by human mesenchymal stem cells (MSCs). The concentration ranges selected for each drug and investigational agent were based upon clinically achievable concentrations if the clinical Cmax of the agent was known.
Compounds. The drugs and investigational agents: alrizomadlin (APG-115; NSC831270), pelcitoclax (APG-1252; NSC835773), dasminapant (APG-1387;NSC834197), TAK-243 (NSC785004), copanlisib (NSC809693), olaparib (NSC753686), talazoparib (NSC767125), cobimetinib (NSC 768068), eltanexor (KPT-8602, NSC 794443), abemaciclib (NSC 768073), sotorasib (NSC818433), adagrasib (NSC 831453), MRTX-1133 (NSC 836407), Iadademestat (ORY1001, NSC 806812), and RMC-4630 (NSC839698), were obtained from the NCI Developmental Therapeutics Program Chemical Repository. The FDA-approved anticancer drug set is available from the Developmental Therapeutics Program at https://dtp.cancer.gov/organization/dscb/obtaining/available plates.htm. […] The stock solutions were prepared in dimethyl sulfoxide (DMSO, Sigma-Aldrich, St. Louis, MO, cat. D2650) at 800-fold the tested concentration and stored at -70 degrees C prior to their use. All drugs and investigational agents were tested over a range starting from a high concentration at or near the clinical Cmax and decreasing in half-log increments. If the clinical Cmax for an agent had not been determined, the highest concentration tested was 10 microM.
The patient-derived cancer (PDC) cell lines include five colon adenocarcinomas: 186277-243-T-J2-PDC, 616215-338-R-J1-PDC, 439559-082-T-J2-PDC, 463943-066-T-J2-PDC, and 519858-162-T-J1-PDC; three pancreatic carcinomas: 323965-272-R-J2-PDC, 521955-158-R6-J3-PDC, and 521955-158-R2-J5-PDC; two uterine sarcomas: 327498-152-R-J2-PDC and 993429-296-R-J1-PDC; two rhabdomyosarcomas: 755483-174-R-J1-PDC and 772245-204-R-J1-PDC; two soft tissue sarcomas: 126254-015-R-J1-PDC and 494315-158-R-J1-PDC; two malignant fibrous histiocytomas: 317291-083-R-J1-PDC and 596521-263-R-J1-PDC; two breast carcinomas: 171881-019-R-J1-PDC and 885512-296-R-J2-PDC; and one ovarian carcinoma: 6556581-035-R-J-PDC were obtained from the NCI PDMR, (https://pdmr.cancer.gov). The established cell lines HSSY-2 synovial sarcoma (RRID:CVCL 8719), SYO-1 synovial sarcoma (RRID:CVCL_7146), MPNST malignant peripheral neural sheath tumor were obtained from the Sloan Kettering Institute. The following established cell lines were purchased from the American Type Culture Collection (ATCC, Manassas, VA), Sor the received from the NCI repository:, PANC-1 pancreatic carcinoma (CRL-1469, RRID:CVCL_0480), OVCAR-5 ovarian carcinoma (RRID:CVCL_1628), OVCAR-8 ovarian carcinoma (RRID:CVCL_1629), , MCF-7 breast carcinoma (CRL-12584, RRID:CVCL_0031), MDA-MB-231 breast carcinoma (CRL-12532, RRID:CVCL_0062), NCI-H1876 small cell lung carcinoma (CRL-5902, RRID:CVCL_1503), NCI-H510A small cell lung carcinoma (HTB-184, RRID:CVCL_1565), NCI-H1417 (CRL-5869, RRID:CVCL_1469), and NCI-H196 small cell lung carcinoma (CRL-5823, RRID:CVCL_1509). Dr. Peter Houghton (Greehey Children's Cancer Research Institute, University of Texas Health Science Center, San Antonio, TX) provided Rh-18 rhabdomyosarcoma (RRID:CVCL_1659). Pooled donor human umbilical vein endothelial cells (HUVEC, Lonza, cat. CC-2519) and human mesenchymal stem cells (hMSC, Lonza, cat. PT-2501) were purchased from Lonza (Walkersville, MD).
Cell Culture. […]
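Further: spheroids exposed to compounds for seven days before readout.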

| SMILES | viability, T/C (compound 0.00949 µM) | viability, T/C (compound 0.03 µM) | viability, T/C (compound 0.0949 µM) | viability, T/C (compound 0.3 µM) | viability, T/C (compound 0.949 µM) | viability, T/C (compound 3 µM) | IC50 | viability, T/C (compound 0.000316 µM) | viability, T/C (compound 0.001 µM) | viability, T/C (compound 0.00316 µM) | viability, T/C (compound 0.01 µM) | viability, T/C (compound 0.0316 µM) | viability, T/C (compound 0.1 µM) | viability, T/C (compound 0.000949 µM) | viability, T/C (compound 0.003 µM) | viability, T/C (compound 0.316 µM) | viability, T/C (compound 1 µM) | viability, T/C (compound 3.16 µM) | viability, T/C (compound 10 µM) |
| --- | --- | --- | --- | --- | --- | --- | --- | --- | --- | --- | --- | --- | --- | --- | --- | --- | --- | --- | --- |
| Cc1nc(N2CCC3(CC2)COC(C)C3N)c(CO)nc1Sc1ccnc(N)c1Cl (configuration not stated) | 92.6% and 79% and 106% | 82.3% and 110% and 95.9% | 82.2% and 74.3% and 36.2% | 47.3% and 50.9% and 53.9% | 31.6% and 34.4% and 28.9% | 22.1% and 20.2% and 18.8% | 291 nM and 325 nM and 73 nM | – | – | – | – | – | – | – | – | – | – | – | – |
| Cn1ncnc1[C@H]1c2n[nH]c(=O)c3cc(F)cc(c23)N[C@@H]1c1ccc(F)cc1 | – | – | – | – | – | – | 32.7 nM and 18.1 nM and 6.39 nM | 88.4% and 89% and 81.2% | 83.4% and 79.9% and 66.1% | 84.2% and 86.5% and 53.9% | 74.4% and 58.5% and 52.2% | 50.1% and 45.9% and 31.2% | 41.2% and 38.3% and 23.1% | – | – | – | – | – | – |
| NC(=O)C(=Cn1cnc(-c2cc(C(F)(F)F)cc(C(F)(F)F)c2)n1)c1cncnc1 | 31.9% and 25.1% and 35.4% | 12.6% and 12.7% and 19.2% | 8.9% and 7.51% and 9.5% | 9.16% and 4.1% and 26.1% | – | – | 6.11 nM and 5.25 nM and 6.23 nM | – | – | – | – | – | – | 83.4% and 72.6% and 109% | 79.3% and 74.5% and 76.7% | – | – | – | – |
| NC1CCC(NC2CC2c2ccccc2)CC1 (configuration not stated) | – | – | – | – | – | – | > 100 nM | 90.9% and 70.4% and 80.8% | 80.2% and 77.2% and 82.2% | 77.8% and 102% and 61.7% | 82.8% and 87.8% and 74.4% | 68.1% and 94.5% and 113% | 79.2% and 83.4% and 66.6% | – | – | – | – | – | – |
| O=C(c1cc(Cc2n[nH]c(=O)c3ccccc23)ccc1F)N1CCN(C(=O)C2CC2)CC1 | – | – | – | – | – | – | 713 nM and 2730 nM and 2210 nM | – | – | – | – | 81.5% and 67.3% and 77.6% | 57.5% and 87% and 85.7% | – | – | 70.2% and 82% and 67.8% | 41.8% and 56.8% and 65.6% | 32.3% and 51.1% and 43.3% | 30.1% and 17.6% and 22.7% |
| O=C(c1ccc(F)c(F)c1Nc1ccc(I)cc1F)N1CC(O)([C@@H]2CCCCN2)C1 | – | – | – | – | – | – | 369 nM and 409 nM and 413 nM | – | – | 109% and 82.3% and 101% | 117% and 73.6% and 104% | 96.3% and 99.1% and 95.6% | 91.4% and 70.1% and 93.1% | – | – | 53.5% and 61.5% and 60.8% | 18.9% and 14.9% and 13.3% | – | – |
